What follows are molecules tested on Min6 cell (assay: Insulin secretion response of beta cell line to formula I compounds (insulin ELISA)). Conditions: rank according to % increase versus control at most effective dose.
Assay type: cell-based
Procedure, shortened: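 After compound or vehicle exposure, Min6 cells were held 2 h in glucose-free medium and preincubated 30 min at 37° C in glucose-free KRBH (pH 7.4, 0.1% BSA). They were then incubated 30 min at 37° C in KRBH with varying glucose. Secreted insulin and acid-ethanol-extracted intracellular insulin were measured by ELISA.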

| Molecule | Insulin secretion (Min6 cell) Range 1 to 5 |
| --- | --- |
| CC(C)(C)OCC(O)CN1CCC(=O)N(C2CC2)Cc2cc3c(cc21)OCO3 (stereo not shown) [Compound 162, 5-(3-tert-butoxy-2-hydroxypropyl)-9-cyclopropyl-6,7,9,10-tetrahydro[1,3]dioxolo[4,5-i][1,5]benzodiazocin-8(5H)-one] | 1 (1: 90-110% of control) |
| CCN1Cc2ccccc2N(CC(C)O)CCC1=O (stereo not shown) [Compound 163, 5-ethyl-1-(2-hydroxypropyl)-2,3,5,6-tetrahydrobenzo[b][1,5]diazocin-4(1H)-one] | 1 (1: 90-110% of control) |
| CCN1Cc2cc(F)ccc2N(CC(O)C(C)(C)C)CCC1=O (stereo not shown) [Compound 166, 5-ethyl-8-fluoro-1-(2-hydroxy-3,3-dimethylbutyl)-2,3,5,6-tetrahydrobenzo[b][1,5]diazocin-4(1H)-one] | 1 (1: 90-110% of control) |
| C=CCOc1c(OC)ccc2c1CN(CC)C(=O)CCN2CC(O)COc1ccccc1 (stereo not shown) [Compound 167, 7-(allyloxy)-5-ethyl-1-(2-hydroxy-3-phenoxypropyl)-8-methoxy-2,3,5,6-tetrahydrobenzo[b][1,5]diazocin-4(1H)-one] | 2 (2: 110-120% of control) |
| O=C1CCN(C[C@@H](O)COCc2ccccc2)c2ccc(F)cc2CN1C1CCCC1 [Compound 168, (R)-1-(3-(benzyloxy)-2-hydroxypropyl)-5-cyclopentyl-8-fluoro-2,3,5,6-tetrahydrobenzo[b][1,5]diazocin-4(1H)-one] | 4 (4: 140-170% of control) |
| C=CCOc1c(OC)ccc2c1CN(CC1CC1)C(=O)CCN2C(=O)c1ccno1 [Compound 169, 7-(allyloxy)-5-(cyclopropylmethyl)-1-(isoxazole-5-carbonyl)-8-methoxy-2,3,5,6-tetrahydrobenzo[b][1,5]diazocin-4(1H)-one] | 4 (4: 140-170% of control) |
| ethyl 2-(4-oxo-1,2,3,4-tetrahydrobenzo[b][1,5]diazocin-5(6H)-yl)acetate [Compound 155] | 1 (1: 90-110% of control) |

Source: patent US8765728B2, “[1,5]-diazocin derivatives” (MelliTech, priority 2009, dated 2014)
